Data taken from article PMC8620390, “New Multi-Targeted Antiproliferative Agents: Design and Synthesis of IC261-Based Oxindoles as Potential Tubulin, CK1 and EGFR Inhibitors” (Pharmaceuticals, 2021).

Key:
[1] = tested on: COLO-205; assay: Two-dose antiproliferative screening, SRB assay, COLO-205; assay type: cell-based, human; conditions: triplicates; for inhibition at 1 µM / inhibition at 10 µM: Homo sapiens, COLO 205, 72 h; for inhibition at 1 µM: read-out: Growth Inhibition (%) COLO-205 1 μM Average; for inhibition at 10 µM: read-out: Growth Inhibition (%) COLO-205 10 μM Average; for Growth Inhibition (%) COLO-205 10 μM Average: 72 h
Procedure: (§1) MCF-7(breast adenocarcinoma), PC-3 (prostate cancer) and COLO-205 (colorectal cancer) were obtained from Nawah Scientific inc., (Mokatam, Cairo, Egypt). Cells were maintained in Dulbecco’s Modified Eagle’s media (DMEM media) supplemented with […] of streptomycin, 100 units/mL of penicillin and 10% of heat-inactivated fetal bovine serum in humidified, 5% (v/v) CO2 atmosphere at 37 °C.
(§2) Cell viability was assessed by the sulforhodamine B (SRB) assay. Aliquots of cell suspension (5 × 10^3 cells, 100 μL) were transferred into 96 well plates and incubated in complete media for 24 h. Cells were treated with another aliquot media (100 μL) containing compounds 3a–f, 4a–f, 6a–f, 7a–f, 9a–b at concentrations of 1 and 10 μM). After 72 h of drug exposure, cells were fixed by replacing media with trichloroacetic acid (TCA, 10%, 150 μL) and incubated at 4 °C for 1 h. The TCA solution was removed, and the cells were washed five times with distilled water. Aliquots of SRB solution (0.4%w/v, 70 μL) were added and incubated in a dark place at room temperature for 10 min. Plates were washed three times with 1% acetic acid and allowed to air dry overnight. Then, a solution of TRIS base and TRIS HCl (TRIS buffer, 10 mM, 150 μL) was added to dissolve protein bound SRB stain. The absorbance was measured at 540 nm using BMGLABTECH®–FLUOstar omega micro-plate reader (Ortenberg, Germany).

[2] = tested on: MCF-7; assay: Two-dose antiproliferative screening, SRB assay, MCF-7; assay type: cell-based; conditions: Homo sapiens, MCF7, 72 h, triplicates; for inhibition at 1 µM: read-out: Growth Inhibition (%) MCF-7 1 μM Average; for inhibition at 10 µM: read-out: Growth Inhibition (%) MCF-7 10 μM Average
Procedure: as §1, §2

[3] = tested on: PC-3; assay: Two-dose antiproliferative screening, SRB assay, PC-3; assay type: cell-based; conditions: triplicates; for inhibition at 1 µM / inhibition at 10 µM: Homo sapiens, PC-3, 72 h; for inhibition at 1 µM: read-out: Growth Inhibition (%) PC-3 1 μM Average; for inhibition at 10 µM: read-out: Growth Inhibition (%) PC-3 10 μM Average; for Growth Inhibition (%) PC-3 10 μM Average: 72 h
Procedure: as §1, §2

[4] = tested on: COLO-205; assay: IC50 against COLO-205, SRB assay; assay type: cell-based; conditions: Homo sapiens, 0.001–100 μM
Procedure: as §2
The same procedures used to screen two-dose anticancer activities were applied in determining IC50 values against COLO-205 using SRB assay. Cells were maintained at Roswell Park Memorial Institute media (RPMI media). The test was performed using 0.001–100 μM of compounds 4a (IC261), 4b, 4d, 4e, 6e and 6f. IC50 values were calculated using the equation for Boltzman sigmoidal concentration–response curve using the nonlinear regression fitting models by GraphPad, Prism version 5 (GraphPad Software Inc., La Jolla, CA, USA).

melting point	IC50 [4]	SMILES	inhibition at 1 µM [1]	inhibition at 10 µM [1]	inhibition at 1 µM [2]	inhibition at 10 µM [2]	inhibition at 1 µM [3]	inhibition at 10 µM [3]	Growth Inhibition (%) PC-3 10 μM Average [3]	Growth Inhibition (%) COLO-205 10 μM Average [1]
		COc1cc(/C=C2/C(=O)Nc3ccccc32)cc(OC)c1OC [Compound 3a, (E)-3-(3,4,5-trimethoxybenzylidene)indolin-2-one]	1.18%	4.71%	1.17%	3.44%	1.92%	20.4%		
		COc1cc(/C=C2/C(=O)Nc3cc(Cl)ccc32)cc(OC)c1OC [Compound 3b, (E)-6-chloro-3-(3,4,5-trimethoxybenzylidene)indolin-2-one]	5.7%	32.6%	1.14%	41.2%	7.69%	39%		
		COc1cc(/C=C2/C(=O)Nc3ccc(Cl)cc32)cc(OC)c1OC [Compound 3c, (E)-5-chloro-3-(3,4,5-trimethoxybenzylidene)indolin-2-one]	2.86%	6.41%	1.06%	8.56%	1.42%	14.3%		
		COc1cc(/C=C2/C(=O)Nc3ccc(F)cc32)cc(OC)c1OC [Compound 3d, (E)-5-fluoro-3-(3,4,5-trimethoxybenzylidene)indolin-2-one]	7.01%	11.8%	0.98%	3.6%	2.02%	1.91%		
		COc1ccc2c(c1)/C(=C\c1cc(OC)c(OC)c(OC)c1)C(=O)N2 [Compound 3e, (E)-5-methoxy-3-(3,4,5-trimethoxybenzylidene)indolin-2-one]	2.34%	18.6%	21%	65.3%	32.9%	52 to 72%	61.38%	
		COc1cc(/C=C2/C(=O)Nc3ncccc32)cc(OC)c1OC [Compound 3f, (E)-3-(3,4,5-trimethoxybenzylidene)-1,3-dihydro-2H-pyrrolo[2,3-b] pyridin-2-one]	1.52%	9.13%	0.36%	4.53%	1.29%	3.57%		
244 to 247 °C		COc1cc(OC)c(/C=C2/C(=O)Nc3ccc(Cl)cc32)c(OC)c1 [Compound 4c, (E)-5-chloro-3-(2,4,6-trimethoxybenzylidene)indolin-2-one]	2.67%	58%	17.9%	65.1%	28.9%	62.2%		58.44%
		COc1cc(OC)c(/C=C2/C(=O)Nc3ncccc32)c(OC)c1 [Compound 4f, (E)-3-(2,4,6-trimethoxybenzylidene)-1,3-dihydro-2H-pyrrolo[2,3-b] pyridin-2-one]	7.64%	63.8%	11.5%	65.8%	23%	69.1%		
		COc1cc(/C=C2/C(=O)N(Cc3ccccc3)c3ccccc32)cc(OC)c1OC [Compound 6a, (E)-1-Benzyl-3-(3,4,5-trimethoxybenzylidene)indolin-2-one]	2.46%	4.97%	1.74%	48.5%	4.3%	5.03%		
		COc1cc(/C=C2/C(=O)N(Cc3ccc(Cl)cc3)c3ccccc32)cc(OC)c1OC [Compound 6b, (E)-1-(4-Chlorobenzyl)-3-(3,4,5-trimethoxybenzylidene)indolin-2-one]	3.9%	45.8%	1.13%	32.2%	1.04%	28.9%		
		COc1cc(/C=C2/C(=O)N(Cc3ccc(F)cc3)c3ccccc32)cc(OC)c1OC [Compound 6c, (E)-1-(4-Fluorobenzyl)-3-(3,4,5-trimethoxybenzylidene)indolin-2-one]	4.66%	13.6%	5.68%	25%	0.69%	8.22%		
		COc1cc(/C=C2/C(=O)N(Cc3ccccc3)c3cc(Cl)ccc32)cc(OC)c1OC [Compound 6d, (E)-1-benzyl-6-chloro-3-(3,4,5-trimethoxybenzylidene)indolin-2-one]	2.38%	8.68%	0.68%	48.4%	4.24%	7.34%		
	15.3 µM	COc1cc(/C=C2/C(=O)N(Cc3ccc(Cl)cc3)c3cc(Cl)ccc32)cc(OC)c1OC [Compound 6e, (E)-6-chloro-1-(4-chlorobenzyl)-3-(3,4,5-trimethoxybenzylidene) indolin-2-one]	6.49%	72.6%	3.69%	6%	3.22%	5.65%		
	10.6 µM	COc1cc(/C=C2/C(=O)N(Cc3ccc(F)cc3)c3cc(Cl)ccc32)cc(OC)c1OC [Compound 6f, (E)-6-chloro-1-(4-fluorobenzyl)-3-(3,4,5-trimethoxybenzylidene) indolin-2-one]	3.67%	63.8%	3.56%	29.9%	0.4%	23.4%		
		COc1cc(OC)c(/C=C2/C(=O)N(Cc3ccccc3)c3ccccc32)c(OC)c1 [Compound 7a, (E)-1-benzyl-3-(2,4,6-trimethoxybenzylidene)indolin-2-one]	11.9%	20%	0.6%	15.3%	0.65%	8.59%		
		COc1cc(OC)c(/C=C2/C(=O)N(Cc3ccc(Cl)cc3)c3ccccc32)c(OC)c1 [Compound 7b, (E)-1-(4-chlorobenzyl)-3-(2,4,6-trimethoxybenzylidene)indolin-2-one]	3%	3.33%	3.81%	5.48%	1.05%	3.15%		
		COc1cc(OC)c(/C=C2/C(=O)N(Cc3ccc(F)cc3)c3ccccc32)c(OC)c1 [Compound 7c, (E)-1-(4-fluorobenzyl)-3-(2,4,6-trimethoxybenzylidene)indolin-2-one]	4.66%	18.3%	4.08%	25.9%	0.89%	13.8%		
		COc1cc(OC)c(/C=C2/C(=O)N(Cc3ccccc3)c3cc(Cl)ccc32)c(OC)c1 [Compound 7d, (E)-1-benzyl-6-chloro-3-(2,4,6-trimethoxybenzylidene)indolin-2-one]	2.38%	15.6%	0.49%	40.5%	1.47%	19.9%		
		COc1cc(OC)c(/C=C2/C(=O)N(Cc3ccc(Cl)cc3)c3cc(Cl)ccc32)c(OC)c1 [Compound 7e, (E)-6-chloro-1-(4-chlorobenzyl)-3-(2,4,6-trimethoxybenzylidene) indolin-2-one]	3.82%	22.1%	1.59%	46.2%	1.77%	52 to 72%	51.68%	
		COc1cc(OC)c(/C=C2/C(=O)N(Cc3ccc(F)cc3)c3cc(Cl)ccc32)c(OC)c1 [Compound 7f, (E)-6-chloro-1-(4-fluorobenzyl)-3-(2,4,6-trimethoxybenzylidene) indolin-2-one]	3.33%		10.3%	16%	0.75%	7.08%		3.97%
